Source: patent US10808008B2, “Aromatic-cationic peptides and uses of same” (Cornell University, priority 2012, dated 2020)
Entries after “also recorded” stand apart in the source; their conditions may differ.

Columns and labels:
Format in all cases: biochemical
[1] = molecular target: cytochrome c and cardiolipin (Equus caballus, UniProt P00004); assay: Oxidation of ferrous cytochrome c by cardiolipin (A550); conditions: 20 μM cytochrome c reduced by 50 μM ascorbic acid; 100 μg/ml cardiolipin
Experimental: Cytochrome c (20 μM) was reduced by 50 μM ascorbic acid until all available functionally active cytochrome c was reduced. The reduction of cytochrome c was monitored by the appearance of a peak at 550 nm in its absorbance spectrum (Molecular Devices, Sunnyvale, Calif.). […] The rate of oxidation was calculated based on slope of the change in absorbance intensity of 550 nm over 570 nm.

[2] = molecular target: cardiolipin-cytochrome c complex (Equus caballus, UniProt P00004); assay: Cytochrome c reduction in the presence of cardiolipin; conditions: for rate of cytochrome c reduction in the presence of cardiolipin: 40 μM peptide, 100 μg/ml cardiolipin, 50 μM ascorbate, 10% with cardiolipin alone
cardiolipin-cytochrome c complex, sequence (P00004 2-105 limits assumed, one chain of several): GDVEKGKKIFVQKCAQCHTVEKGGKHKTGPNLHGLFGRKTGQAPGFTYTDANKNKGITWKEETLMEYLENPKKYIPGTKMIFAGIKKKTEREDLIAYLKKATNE
Experimental: Reduction of cytochrome c (20 μM) was induced by the addition of glutathione (500 μM) in the absence or presence of CL (100 μg/ml) (FIG. 15A). Reduction of cytochrome c was monitored by absorbance at 550 nm using a 96-well UV-VIS plate reader (Molecular Devices). Addition of CL decreased the rate of cytochrome c reduction by half.
The time course of cytochrome c reduction by ascorbate was recorded at 550 nm and 570 nm using a 96-well plate reader (Molecular Devices, Sunnyvale, Calif.). For all reactions, cytochrome c was preincubated with cardiolipin in the presence or absence of SS peptides for 1 min. […] Ascorbate (50 μM) was added to initiate the reduction of cytochrome c, and the absorbance was recorded for 5 min. The rate of reduction was calculated based on slope of the change in absorbance intensity of 550 nm over 570 nm.

[3] = molecular target: cytochrome c/cardiolipin complex (Equus caballus, UniProt P00004); assay: Soret circular dichroism of cytochrome c with cardiolipin; conditions: 10 μM cytochrome c; for protection against CL-induced disappearance of negative Cotton effect: 30 μg/ml CL, 10 μM peptide, 20 mM HEPES pH 7.5, 25° C.; for loss of the negative Cotton peak at 419 nm caused by cardiolipin: 30 μg/ml cardiolipin, peptide 1:1 with cytochrome c, pH 7.4
cytochrome c/cardiolipin complex, sequence (P00004 2-105 limits assumed, one chain of several): as above
Experimental: Circular dichroism (CD) was carried out to examine the effects of the peptides on protecting the heme environment of cytochrome c from the acyl chain of CL. For heme proteins, the Soret CD spectrum is strictly correlated with the heme pocket conformation. In particular, the negative 416-420 nm Cotton effect is considered diagnostic of Fe(III)-Met80 coordination in native cytochrome c (Santucci and Ascoli, 1997). […] CD spectra were obtained using AVIV CD Spectrometer Model 410.
Changes in the Soret CD spectrum of cytochrome c (10 μM) were recorded in the absence (dotted line) and presence (dashed line) of 30 μg/ml CL, plus addition of different peptides (10 μM) (solid line) (FIG. 14). CD measurements were carried out using 20 mM HEPES, pH 7.5, at 25° C. and expressed as molar ellipticity (A) (m Deg). […] Accordingly, aromatic-cationic peptides of the present disclosure are useful for the prevention or treatment of diseases or disorders characterized by dysregulation of cardiolipin and/or cytochrome c, and/or diseases or disorders characterized by dysregulation of the cardiolipin/cytochrome c interaction. In addition, aromatic-cationic peptides of the present disclosure are useful to protect the heme environment of cytochrome c from the acyl chain of cardiolipin.
Circular Dichroism (CD) spectra were collected with an AVIA 62 DS spectrophotometer equipped with a sample temperature controller. CD spectra of the Soret region (370-450 nm) were recorded with 10-mm path length cells containing 20 mM Hepes, pH 7.4, and 10 μM cytochrome c, in the presence or absence of 30 μg/ml cardiolipin and different SS peptide analogs (SS-02, [atn]SS-02, [ald]SS-02, and SS-31). The maximum lipid concentration was kept low to avoid spectral distortions due to excessive light scattering. All measurements were done at 25° C. All spectra were corrected for background, and the final spectrum shown represents the average of at least three experiments.

cytochrome c/CL complex = cytochrome c/CL complex (Equus caballus, UniProt P00004); assay: Peroxidase activity of cytochrome c/cardiolipin complex (Amplex Red); conditions: 2 μM cytochrome c; for peroxidation rate of cytochrome c: 10 μM peptide, cardiolipin 100 μg/ml
cytochrome c/CL complex, sequence (P00004 2-105 limits assumed, one chain of several): as above
Description: The six coordination of the heme in cytochrome c prevents direct interaction of H2O2 with the catalytic metal site, and native cytochrome c in solution is a poor peroxidase. Upon interaction with CL, cytochrome c undergoes a structural change with rupture of the Fe-Met80 coordination. […] The mechanism of action of cytochrome c peroxidase is similar to that of other peroxidases, such as horse radish peroxidase (HRP). Thus it is possible to use the amplex red-HRP reaction to investigate cytochrome c peroxidase activity. In the presence of peroxidase, amplex red (AR) reacts with H2O2 to form the red-fluorescent oxidation product, resorufin (Ex/Em=571/585).
Cytochrome c (2 μM) was mixed with CL (25 μg/ml) and 10 μM H2O2 in 20 mM HEPES, pH 7.4. Amplex red (50 μM) was then added and fluorescence emission monitored in real time using Hitachi F4500 fluorescence spectrophotometer. Addition of amplex red elicited rapid increase in fluorescence signal due to resorufin formation, providing direct evidence for peroxidase activity of cytochrome c/CL complex (FIG. 19A).
Assessment of cytochrome c peroxidase activity was achieved using the Amplex® Red assay (Invitrogen/Life Technologies, Carlsbad, Calif.). Amplex® Red is a reagent that reacts with H2O2 in a 1:1 stoichiometry to produce highly fluorescent resorufin (λex/λem=570/585) in the presence of a peroxidase. In this assay, cytochrome c is added in place of horseradish peroxidase. 2 μM cytochrome c was incubated with cardiolipin or cardiolipin-POPC liposomes (10 μg/ml) for 1 min in 20 mM HEPES (pH 7.4) or deionized water prior to the addition of 50 μM Amplex® Red reagent and 10 μM H2O2, and the reaction was allowed to proceed for an additional 5 minutes. The continuous time course data were obtained using Hitachi F-4500 fluorescence spectrophotometer. When comparing the different SS peptide analogs (10 μM) in inhibiting peroxidase activity cytochrome c (2 μM) in the presence of cardiolipin (100 μg/ml), a microplate spectrofluorometer (Molecular Devices, Sunnyvale, Calif.) was used. Horseradish peroxidase (HRP) was used for comparison, and the HRP concentration (0.001 U/ml) was optimized to match the rate of Amplex® Red peroxidation by cardiolipin-cytochrome c complex.

cytochrome c and cardiolipin, sequence (P00004 2-105 limits assumed): as the sequence (P00004 2-105 limits assumed, one chain of several) above

Substance | oxidation of cytochrome c by cardiolipin (loss of the 550 nm peak) [1] | rate of cytochrome c reduction in the presence of cardiolipin ([2]; 20 μM cytochrome c) | protection against CL-induced disappearance of negative Cotton effect [3] | loss of the negative Cotton peak at 419 nm caused by cardiolipin [3] | peroxidation rate of cytochrome c (cytochrome c/CL complex) | inhibitory action of CL on cytochrome c reduction ([2]; 20 μM cytochrome c, 500 μM glutathione, CL 100 μg/ml, SS-31 20, 40 or 100 μM) | inhibitory effect of CL on kinetics of cytochrome c reduction ([2]; 500 μM GSH or 50 μM ascorbate) | rate of amplex red peroxidation / kinetics of cytochrome c peroxidase activity (cytochrome c/CL complex; CL 25 μg/ml, 10 μM H2O2, 50 μM amplex red)
2′,6′-Dmt-D-Arg-Ald-Lys-NH2 [SS-36] | inhibition of cytochrome c oxidation | about 90% | Protect the Heme Environment of Cytochrome c from the Acyl Chain of CL | prevented | about 20 % of control | – | – | –
2′,6′-Dmt-D-Arg-Phe-(atn)Dap-NH2 [SS-19] | inhibition of cytochrome c oxidation | about 50% | Protect the Heme Environment of Cytochrome c from the Acyl Chain of CL | prevented | ~75 % of control | – | – | –
D-Arg-2′,6′-Dmt-Lys-Phe-NH2 [SS-31] | prevented by the addition of SS-31 in a concentration-dependent manner | 100% | Protect the Heme Environment of Cytochrome c from the Acyl Chain of CL | prevented | ~35 % of control | dose-dependently prevented the inhibitory action of CL | dose-dependently overcame the inhibitory effect of CL | decreased the rate of amplex red peroxidation; also recorded: dose-dependently reduced the kinetics of cytochrome c peroxidase activity
